Values after ≈ are worked out from the molar mass of the structure shown.
Key:
Experiment in all cases: MIC by agar dilution
[1] = test system: E. faecium (34); assay type: cell-based, Enterococcus faecium
How it was run: (§1)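 Agar dilution in peptone-free medium with 2% saponin-lysed horse blood, 25.0 μg/mL NAD and 25.0 μg/mL hemin; compounds at 0.016–32 μg/mL for gram-positives. Inoculum 10 000 CFU/spot; plates incubated 22 hours at 37° C, at least two independent replicates.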

[2] = test system: All Enterococci (50); assay type: cell-based; settings: All Enterococci (50)
How it was run: as §1

[3] = test system: methicillin-resistant Staphylococcus aureus; assay type: cell-based
How it was run: as §1

[4] = test system: glycopeptide-resistant enterococci; assay type: cell-based
How it was run: as §1

[5] = test system: methicillin-sensitive Staphylococcus aureus; assay type: cell-based; settings: MSSA (13)
How it was run: as §1

[6] = test system: Kluyvera sp. (n=1); assay type: cell-based, Kluyvera spp
Excerpt: (§2) Bacterial isolates. […] These included Citrobacter freundii (n=5), other species of Citrobacter (n=4), Enterobacter aerogenes (n=1), Enterobacter cloacae (n=27), Escherichia coli (n=53), Klebsiella oxytoca (n=5), Klebsiella pneumoniae (n=87), Kluyvera spp (n=1), Proteus mirabilis (n=8), Providencia rettgeri (n=2), Salmonella spp (n=3), and Serratia marcescens (n=1). Among these 197 isolates, there were 128 (65%) carbapenemase producers, including; 87 with NDM-1, 9 with IMP, 11 with KPC, 14 with OXA-48 and 7 with VIM. The majority of the carbapenemase producers jointly produced broad-spectrum β-lactamases (BSBL) or cephalosporinases (AmpC β-lactamases), but the latter are not documented for the sake of clarity.
(§3) Determining the minimum inhibitory concentrations (MIC). All the MICs were determined using an agar dilution method. This required use of a medium without a defined antagonist (peptone-free), prepared as described previously with the inclusion of 2% horse blood lysed with saponin, 25.0 μg/mL of NAD and 25.0 μg/mL of hemin [17]. […] The MICs of fosfomycin were determined by the same method, except that the IsoSensitest medium (Oxoid, Basingstoke, United Kingdom) was used, plus 25.0 μg/mL of glucose-6-phosphate (Sigma, Poole, United Kingdom) and an extended range of fosfomycin concentrations. […]

[7] = test system: E. aerogenes (n=1); assay type: cell-based, Enterobacter aerogenes
Excerpt: as §2, §3

[8] = test system: E. faecalis (11); assay type: cell-based, Enterococcus faecalis; settings: Enterococcus faecalis, E. faecalis (11)
How it was run: as §1

[9] = test system: S. marcescens (n=1); assay type: cell-based, Serratia marcescens
Excerpt: as §2, §3

[10] = test system: Enterobacteriaceae with a broad-spectrum β-lactamase; assay type: cell-based
How it was run: (§4)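 Agar dilution on peptone-free medium with 2% lysed horse blood, NAD and hemin (25.0 μg/mL each), compounds 0.0031 to 8.0 μg/mL; inoculum 10 000 CFU/spot, 22 h at 37° C. Fosfomycin tested in IsoSensitest medium plus 25.0 μg/mL glucose-6-phosphate; at least two replicates.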

[11] = test system: carbapenemase-producing Enterobacteriaceae; assay type: cell-based
How it was run: as §4

[12] = test system: Enterobacteriaceae (197); assay type: cell-based; settings: Enterobacteriaceae (197)
How it was run: as §4

[13] = test system: Citrobacter (n=9); assay type: cell-based
How it was run: as §4

[14] = test system: K. pneumoniae (87); assay type: cell-based, Klebsiella pneumoniae; settings: Klebsiella pneumoniae
How it was run: as §4

[15] = test system: All S. aureus (50); assay type: cell-based, Staphylococcus aureus; settings: All S. aureus (50)
How it was run: as §1

[16] = test system: E. coli (53); assay type: cell-based, Escherichia coli
How it was run: as §4

[17] = test system: Salmonella isolates; assay type: cell-based, Salmonella spp; settings: three Salmonella isolates; read-out: MICs
Excerpt: as §2, §3

[18] = test system: AmpC (22); assay type: cell-based, Enterobacteriaceae
How it was run: as §4

[19] = test system: K. oxytoca; assay type: cell-based, Klebsiella oxytoca; settings: Klebsiella oxytoca; one of the five isolates of K. oxytoca
Excerpt: as §2, §3

[20] = read-out: Modal MIC (most frequent MIC)
[21] = Staphylococcus aureus, read-out: MIC50
[22] = Staphylococcus aureus, read-out: MIC90
[23] = Staphylococcus aureus, read-out: Modal MIC (most frequent MIC)

For C[C@H](N)C(=O)N[C@@H](C)P(=O)(O)O [Alafosfalin, L-alanyl-L-1-aminoethylphosphonic acid], the “concentration by which all isolates were inhibited” value ([1]; 34 E. faecium isolates (including 31 vancomycin-resistant)) was 32 µg/mL, the “MIC Range” value ([1]; E. faecium (34)) was 4 to 32 µg/mL and the MIC50 ([1]; Enterococcus faecium, E. faecium (34), read-out: MIC50) was 16 µg/mL (≈ 81.6 µM). It also gave an MIC90 ([1]; Enterococcus faecium, E. faecium (34), read-out: MIC90) of 16 µg/mL (≈ 81.6 µM), an MIC ([1]; Enterococcus faecium, E. faecium (34), read-out: Modal MIC (most frequent MIC)) of 16 µg/mL (≈ 81.6 µM) and an MIC50 ([2]; read-out: MIC50) of 16 µg/mL (≈ 81.6 µM). For the same molecule, the MIC90 ([2]; read-out: MIC90) was over 32 µg/mL, the MIC [2, 20] was 8 µg/mL (≈ 40.8 µM) and the MIC90 ([3]; MRSA (37)) was 8 µg/mL (≈ 40.8 µM). The “MIC Range” value ([3]; MRSA (37)) was 0.125 to 16 µg/mL, the MIC50 ([3]; Staphylococcus aureus, MRSA) was 4 µg/mL (≈ 20.4 µM) and the MIC90 ([3]; Staphylococcus aureus, MRSA) was 8 µg/mL (≈ 40.8 µM). It also gave an MIC ([3]; Staphylococcus aureus, MRSA, read-out: Modal MIC (most frequent MIC)) of 4 µg/mL (≈ 20.4 µM), an MIC50 [4] of 16 µg/mL (≈ 81.6 µM) and an MIC90 [4] of over 32 µg/mL. For the same molecule, the MIC [4, 20] was 16 µg/mL (≈ 81.6 µM), the “MIC Range” value [5] was 0.25 to 16 µg/mL and the MIC50 [5, 21] was 4 µg/mL (≈ 20.4 µM). The MIC90 [5, 22] was 8 µg/mL (≈ 40.8 µM), the MIC [5, 23] was 4 µg/mL (≈ 20.4 µM) and the “concentration to which all the isolates were sensitive” value [6] was at most 4 µg/mL. For the same molecule, the “concentration to which all the isolates were sensitive” value [7] was at most 4 µg/mL, the MIC50 ([8]; read-out: MIC50) was 8 µg/mL (≈ 40.8 µM) and the MIC90 ([8]; read-out: MIC90) was 32 µg/mL (≈ 163 µM). For the same molecule, the MIC [8, 20] was 8 µg/mL (≈ 40.8 µM), the “concentration to which all the isolates were sensitive” value [9] was at most 4 µg/mL and the MIC50 [10] was 2 µg/mL (≈ 10.2 µM). The MIC90 [10] was over 8 µg/mL, the MIC [10, 20] was 2 µg/mL (≈ 10.2 µM) and the MIC50 [11] was 1 µg/mL (≈ 5.1 µM). It also gave an MIC90 [11] of 4 µg/mL (≈ 20.4 µM), an MIC [11, 20] of 2 µg/mL (≈ 10.2 µM) and an MIC50 ([12]; read-out: MIC50) of 2 µg/mL (≈ 10.2 µM). For the same molecule, the MIC90 ([12]; read-out: MIC90) was over 8 µg/mL, the MIC [12, 20] was 2 µg/mL (≈ 10.2 µM) and the “concentration to which all the isolates were sensitive” value [13] was at most 4 µg/mL. For the same molecule, the MIC50 ([14]; K. pneumoniae (87), read-out: MIC50) was 2 µg/mL (≈ 10.2 µM), the MIC90 ([14]; K. pneumoniae (87), read-out: MIC90) was over 8 µg/mL and the MIC ([14]; K. pneumoniae (87), read-out: Modal MIC (most frequent MIC)) was 2 µg/mL (≈ 10.2 µM). The percent of isolates inhibited at 8 µg/mL ([14]; K. pneumoniae isolates, at 8 μg/mL, read-out: isolates inhibited) was 87%, the “MIC Range” value [15] was 0.125 to 16 µg/mL and the MIC50 [15, 21] was 4 µg/mL (≈ 20.4 µM). For the same molecule, the MIC90 [15, 22] was 8 µg/mL (≈ 40.8 µM), the MIC [15, 23] was 4 µg/mL (≈ 20.4 µM) and the “concentration by which growth of all the isolates was inhibited” value ([16]; 53 isolates of E. coli) was 2 µg/mL. The “activity relative to that of fosfomycin” value ([16]; E. coli) was “approximately four”, the “MIC Range” value ([16]; E. coli (53)) was ≤0.031-2 ^ μg/mL and the MIC50 ([16]; Escherichia coli, E. coli (53), read-out: MIC50) was 0.125 µg/mL (≈ 0.637 µM). For the same molecule, the MIC90 ([16]; Escherichia coli, E. coli (53), read-out: MIC90) was 0.25 µg/mL (≈ 1.27 µM), the MIC ([16]; Escherichia coli, E. coli (53), read-out: Modal MIC (most frequent MIC)) was 0.063 µg/mL (≈ 0.321 µM) and the MIC [17] was at least 8 µg/mL. The MIC50 [18] was 4 µg/mL (≈ 20.4 µM), the MIC90 [18] was over 8 µg/mL and the MIC [18, 20] was over 8 µg/mL. It also gave an MIC [19] of over 8 µg/mL.

Reference: patent US9969758B2, “Antimicrobial compounds” (BIOMERIEUX, priority 2014, dated 2018)
